From ChEMBL document CHEMBL1136126, “Development of 3D-QSAR models in cyclic ureidobenzenesulfonamides: human beta3-adrenergic receptor agonist” (Bioorg Med Chem Lett, 2003)

What was measured:
[1] = biological target: T1, Beta-3 adrenergic receptor (Homo sapiens, UniProt P13945); experiment: (§1) In vitro effective concentration against beta-3 adrenergic receptor.
[2] = biological target: T1, Beta-3 adrenergic receptor; experiment: as §1; remark: listed apart in the source

T1 sequence (P13945 whole entry): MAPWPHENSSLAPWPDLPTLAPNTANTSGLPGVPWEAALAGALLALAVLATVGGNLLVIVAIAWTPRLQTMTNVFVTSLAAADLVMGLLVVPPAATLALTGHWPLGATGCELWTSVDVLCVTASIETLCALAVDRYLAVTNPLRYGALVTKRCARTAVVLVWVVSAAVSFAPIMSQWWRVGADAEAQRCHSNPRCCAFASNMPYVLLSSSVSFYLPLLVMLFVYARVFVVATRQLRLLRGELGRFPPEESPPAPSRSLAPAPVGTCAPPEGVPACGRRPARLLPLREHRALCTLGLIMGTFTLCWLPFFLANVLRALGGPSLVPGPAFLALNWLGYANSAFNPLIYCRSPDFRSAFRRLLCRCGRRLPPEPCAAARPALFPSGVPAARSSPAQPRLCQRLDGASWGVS

SMILES: CCCCCCN1CC(=O)N(c2ccc(S(=O)(=O)Nc3ccc(CCNC[C@H](O)c4cccnc4)cc3)cc2)C1=O
- EC50 [1]: 275 nM

SMILES: CCCCCCCCN1CNN(c2ccc(S(=O)(=O)Nc3ccc(CCNC[C@H](O)c4cccnc4)cc3)cc2)C1=O
- EC50 [2]: 5.4 nM
- EC50 [1]: 5.37 nM

SMILES: CCCCCCCCN1NCN(c2ccc(S(=O)(=O)Nc3ccc(CCNC[C@H](O)c4cccnc4)cc3)cc2)C1=O
- EC50 [2]: 15 nM
- EC50 [1]: 15.1 nM
